Common to all, as to experiment: acetophenone formation at […] nm, Michaelis-Menten fit
Holding throughout (assay type): biochemical
What all share (details): 0.1 mM PLP, 0.25% DMSO, 50 mM sodium phosphate pH 8.0, 25°C

For assay [1], the target named is T1, At-ATA (Aspergillus terreus, UniProt Q0C8G1, D224K).
T1 construct: gene ATEG_10023

Assay [2] deals with T2, At-ATA (Aspergillus terreus, UniProt Q0C8G1, E253A).
T2 construct: gene ATEG_10023

Assay [3] concerns the target T3, At-ATA (Aspergillus terreus, UniProt Q0C8G1, E133Q).
T3 construct: gene ATEG_10023

Setting [4] is: read-out: Kmpyruvate /, 2.5 mM 1-(R)-PEA.
The mark [5] stands for this setting: read-out: Km1-(R)-PEA /, 2.5 mM pyruvate.

Like-named read-outs stand apart in the source and are kept apart here.

In the case of `CC(=O)C(=O)O` [pyruvate], the results for the Km at At-ATA [1] (setting [4]), at At-ATA [2] (setting [4]) and on At-ATA [3] (setting [4]) were 350 ± 20 µM, 690 ± 10 µM and 500 ± 10 µM, respectively.

Regarding `C[C@@H](N)c1ccccc1` [1-(R)-PEA], the Km at At-ATA [1] (setting [5]) is 140 ± 10 µM; at At-ATA [2] (setting [5]), 170 ± 20 µM; on At-ATA [3] (setting [5]), 160 ± 10 µM.

Values taken from paper PMC8081293 (Frontiers in Chemistry, 2021).
